Results from publication PMC8404200, “Synthetic Glycolipids as Molecular Vaccine Adjuvants: Mechanism of Action in Human Cells and In Vivo Activity” (Journal of Medicinal Chemistry, 2021).

Molecular target: T1, MD-2 (TLR4/MD-2 complex) (Homo sapiens, UniProt Q9Y6Y9)
T1 construct: gene LY96; Recombinant human TLR4/MD2 complex; with TLR4
Test: SPR (Biacore X100) on immobilized recombinant human TLR4/MD-2; agonism supported in HEK-Blue hTLR4 cells
Assay type: binding

T1 sequence (Q9Y6Y9 19-160): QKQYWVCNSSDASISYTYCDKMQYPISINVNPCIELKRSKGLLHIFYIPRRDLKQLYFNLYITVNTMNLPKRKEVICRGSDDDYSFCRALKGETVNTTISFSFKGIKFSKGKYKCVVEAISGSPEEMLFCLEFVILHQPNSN
T1 sequence (O00206 24-839 partner): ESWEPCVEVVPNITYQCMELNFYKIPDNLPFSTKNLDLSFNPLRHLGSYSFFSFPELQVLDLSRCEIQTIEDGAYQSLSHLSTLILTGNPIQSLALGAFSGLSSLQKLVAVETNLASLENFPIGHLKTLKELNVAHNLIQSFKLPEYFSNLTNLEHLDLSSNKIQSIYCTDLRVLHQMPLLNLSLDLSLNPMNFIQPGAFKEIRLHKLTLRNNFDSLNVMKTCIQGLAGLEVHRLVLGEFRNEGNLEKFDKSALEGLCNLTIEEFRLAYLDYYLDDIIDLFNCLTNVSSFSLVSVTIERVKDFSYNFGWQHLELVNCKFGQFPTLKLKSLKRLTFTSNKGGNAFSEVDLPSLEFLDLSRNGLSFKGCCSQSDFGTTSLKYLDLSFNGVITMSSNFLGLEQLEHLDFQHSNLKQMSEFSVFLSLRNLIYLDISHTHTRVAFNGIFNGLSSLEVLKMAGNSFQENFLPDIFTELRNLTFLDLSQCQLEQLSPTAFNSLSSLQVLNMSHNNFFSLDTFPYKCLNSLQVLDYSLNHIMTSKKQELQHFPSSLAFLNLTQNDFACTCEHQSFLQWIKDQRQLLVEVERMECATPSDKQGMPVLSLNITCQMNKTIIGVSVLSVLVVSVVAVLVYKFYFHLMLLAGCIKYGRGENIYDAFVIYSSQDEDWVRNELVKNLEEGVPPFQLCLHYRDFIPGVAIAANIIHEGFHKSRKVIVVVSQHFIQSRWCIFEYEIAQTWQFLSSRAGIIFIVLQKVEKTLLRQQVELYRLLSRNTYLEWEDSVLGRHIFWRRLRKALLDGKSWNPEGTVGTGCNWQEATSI

| SMILES | Kd [nM] |
| --- | --- |
| CCCCCCCCCCCCCC(=O)N[C@H]1[C@@H](OP(=O)(O)O)O[C@H](CO)[C@@H](OC(=O)CCCCCCCCCCCCC)[C@@H]1OC(=O)CCCCCCCCCCCCC [FP11] | 180 |
| CCCCCCCCCCCC(=O)N[C@H]1[C@@H](OP(=O)(O)O)O[C@H](CO)[C@@H](OC(=O)CCCCCCCCCCC)[C@@H]1OC(=O)CCCCCCCCCCC [FP18] | 570 |
